Calls of active or inactive are those of the source. No cut-off for these calls is given here.
Biological target: Sodium-dependent dopamine transporter (Homo sapiens, UniProt Q01959)
Experiment: Inhibition of dopamine uptake at human dopamine transporter

CNC[C@]1(O)Cc2ccccc2[C@@H]1Oc1ccccc1SC
Activity: inactive

CNC[C@]1(O)Cc2ccccc2[C@@H]1Oc1ccccc1C
Activity: inactive

CNC[C@]1(O)Cc2ccccc2[C@@H]1Oc1ccccc1F
Activity: inactive

CNC[C@]1(O)Cc2ccccc2[C@@H]1Oc1c(C)cccc1F
Activity: inactive

CNC[C@]1(O)Cc2ccccc2[C@@H]1Oc1ccc(C)cc1C
Activity: inactive

CNC[C@@]1(O)Cc2ccccc2[C@H]1Oc1ccccc1C
Activity: inactive

CNC[C@]1(O)Cc2ccccc2[C@@H]1Oc1cccc(O)c1C
Activity: inactive

CNC[C@]1(O)Cc2ccccc2[C@@H]1Oc1ccccc1OC
Activity: inactive

CNC[C@]1(OC)Cc2ccccc2[C@@H]1Oc1ccccc1C
Activity: inactive

CNCC1(O)Cc2ccccc2C1Sc1ccccc1C (racemic)
Activity: inactive

CCc1ccccc1O[C@H]1c2ccccc2C[C@@]1(O)CNC
Activity: inactive

Cc1ccccc1OC1c2ccccc2CC1(O)CNCCO (racemic)
Activity: inactive

CNC[C@]1(O)Cc2ccccc2[C@@H]1Oc1ccccc1Cl
Activity: inactive

CNCC1(O)Cc2ccccc2C1Oc1ccccc1C (racemic)
Activity: inactive

Cc1ccccc1OC1c2ccccc2CC1(O)CN (racemic)
Activity: inactive

CNC[C@]1(O)Cc2ccccc2[C@@H]1Oc1cc(F)ccc1C
Activity: inactive

CNC[C@@H]1Cc2ccccc2[C@@H]1Oc1ccccc1C
Activity: inactive

CNC[C@]1(O)Cc2ccccc2[C@@H]1Oc1cccc(F)c1C
Activity: inactive

Cc1ccccc1O[C@H]1c2ccccc2C[C@@]1(O)CN
Activity: inactive

CNCC1(O)Cc2ccccc2C1Cc1ccccc1C (racemic)
Activity: inactive

CNC[C@]1(O)Cc2ccccc2[C@@H]1Oc1cccc(C)c1C
Activity: inactive

CCNCC1(O)Cc2ccccc2C1Oc1ccccc1C (racemic)
Activity: inactive

CNC[C@]1(O)Cc2ccccc2[C@@H]1Oc1ccccc1CO
Activity: inactive

CNC[C@]1(O)Cc2ccccc2[C@@H]1Oc1ccc(O)cc1C
Activity: inactive

CNC[C@]1(O)Cc2ccccc2[C@@H]1Oc1ccc(F)cc1C
Activity: inactive

CNC[C@]1(O)Cc2ccccc2[C@@H]1Oc1ccccc1-c1cccc2ccccc12
Activity: inactive
